The values that follow come from patent US10975087B2, “Solid forms of tetrahydropyranyl amino-pyrrolopyrimidinone compounds” (ArQule, Inc., priority 2018, dated 2021).

By Solubility is commonly meant the concentration that dissolves in the medium under given conditions.

SMILES strings stand for the structures. “And” between values parts separate entries of the source, which are not always exact repeats. Identical values can stand only once. “Also recorded” adds a separate entry of the source.

Common to all, as to format: physicochemical
The nature of series [1]: Accelerated storage conditions (75% RH/40° C. for 72 hours), XRPD.
A short description of series [2]: Karl Fischer coulometric titration (KF) water content. As to the method:
Approximately 10-30 mg of solid material was accurately weighed into a vial. The solid was then manually introduced into the titration cell of a Mettler Toledo C30 Compact Titrator. The vial was back-weighed after the addition of the solid and the weight of the added solid entered on the instrument. Titration was initiated once the sample had fully dissolved in the cell. The water content was calculated automatically by the instrument as a percentage and the data printed.

Series [3] in a line: Variable temperature X-ray powder diffraction (VT-XRPD). As to the method: VT-XRPD analysis was carried out on a Philips X'Pert Pro Multipurpose diffractometer. The samples were scanned between 4 and 35.99° 2θ using Cu K radiation (α1 λ=1.54060 Å; α2=1.54443 Å; β=1.39225 Å; α1:α2 ratio=0.5) running in Bragg-Brentano geometry (step size 0.008° 2θ) using 40 kV/40 mA generator settings. Measurements were performed at each step of the temperature profile: 30° C. initial scan, 150° C., 200° C., 210° C., 230° C., and 30° C., final scan.

A short description of series [4]: Dynamic vapor sorption (DVS). The following applies: for Post-DVS XRPD analysis (form): after exposure to elevated humidity; for moisture uptake by DVS: at 90% RH. The procedure:
Approximately 10-20 mg of sample was placed into a mesh vapor sorption balance pan and loaded into a DVS-1 dynamic vapor sorption balance by Surface Measurement Systems. […] After completion of the sorption cycle, the sample was dried using the same procedure to 0% RH and then a second sorption cycle back to 40% RH. Two cycles were performed. The weight change during the sorption/desorption cycles were plotted, allowing for the hygroscopic nature of the sample to be determined. XRPD analysis may be then carried out on any solid retained.

Series [5] can be described thus: Hydration studies in water/acetone mixtures. The following applies: for Hydration study result (solid by XRPD): 5 days. The procedure:
Hydration experiments were performed at 25° C. and 50° C. in water/acetone mixtures with the following water content (volume %): 2%, 5%, and 20%. The samples were prepared by adding 250 μL of the water/acetone mixture to 15 mg of the salt sample. The samples were stirred at 25° C. or at 50° C. After 2 days, the samples were inspected for the presence of solid. If solid was not observed, additional salt material was added to the dissolved samples. Samples were stirred for an additional 3 days. After 5 days, samples were filtered and the solid obtained was analyzed by XRPD.

The nature of series [6]: Salt disproportionation studies (slurry in deionized water). The following applies: for XRPD after salt disproportionation study, 48 hours / measured pH after slurrying in water: 48 hours. The procedure: Samples of salts described herein were prepared for disproportionation studies. Approximately 15 mg of the salt material was suspended in 4 mL of deionized water at ambient temperature (ca. 22° C.). The slurry of the salt was shaken at ambient temperature and analyzed after: 1 h, 24 h, and 48 h. Each sample was filtered using a centrifuge filter. The solid was analyzed by XRPD. pH measurements were performed for the solution (three pH measurements were carried out for each sample and the average pH was calculated).

Series [7] in a line: 7 day stability testing, open vials at 40° C./75% RH, ambient and 80° C. The following applies: for XRPD analysis after storage for 1 week: 80° C., and ambient temperature; for Purity after 1 week (%) / area % purity and form changes after 1 week: open vials; for T = 0 purity (%): T = 0, before storage; for area % purity and form changes after 1 week: ambient, 40° C./75% RH and 80° C.

Series [8] is described as follows: Thermodynamic solubility pH measurements. The following applies: for Solubility (mg/mL): Input Solvent pH 6.5, 25° C.; for XRPD after thermodynamic solubility studies: respective buffer. As to the method: After 2 hours at 25° C., the pH of each slurry was measured and the pH was adjusted, where required. After 24 hours at 25° C., the pH of each slurry was measured and the pH was adjusted, where required. After 48 hours at 25° C., the slurries were separated by centrifugation. The solids were analyzed by XRPD, while the pH of the separated liquors were also measured.

The mark [9] stands for this setting: Input Solvent Water, 25° C., 48 hours.
Where [10] appears, read: Input Solvent pH 1, 25° C., 48 hours.
The mark [11] stands for this setting: Input Solvent pH 4.5, 25° C., 48 hours.

`O=S(=O)(O)c1cccc2c(S(=O)(=O)O)cccc12`: the “stability under accelerated storage conditions (XRPD)” value (“stability” for short) in series [1] was “decreased crystallinity”.
On to `O=C(c1ccc(Oc2ccccc2)cc1Cl)c1c[nH]c2ncnc(N[C@@H]3CC[C@@H](CO)OC3)c12` [Form 10, (2-chloro-4-phenoxyphenyl)(4-(((3R,6S)-6-(hydroxymethyl)tetrahydro-2H-pyran-3-yl)amino)-7H-pyrrolo[2,3-d]pyrimidin-5-yl)methanone], for which the “KF moisture (water) content” value in series [2] came out at 1.48%. Also, the “KF water content in equivalents” value in series [2] was 0.4 equivalents. For the same molecule, in series [3] (150° C.), the “VT-XRPD form upon heating to 150° C.” value was “persisted upon heating to 150 °C with poor crystallinity”. Further, in series [3] (230° C.), the “VT-XRPD form at 230° C.” value was “became amorphous”. Besides, the Identity result was “Form 10” in series [3] (VT-XRPD Run 1, Temp 30° C.); “Form 10” in series [3] (VT-XRPD Run 2, Temp 150° C.); “Form 10; also recorded: Form 12” in series [3] (VT-XRPD Run 3, Temp 200° C., two forms printed in two cells); “Form 12” in series [3] (VT-XRPD Run 4, Temp 210° C.); “Amorphous” in series [3] (VT-XRPD Run 5, Temp 230° C.); “Amorphous” in series [3] (VT-XRPD Run 6, Temp 30° C.). In addition, the “VT-XRPD form between ca. 200° C. and ca. 210° C.” value in series [3] (ca. 200° C. to ca. 210° C.) is on record as “converted to Form 12”. Moreover, the “VT-XRPD form upon cooling to 30° C.” value in series [3] (cooling to 30° C.) is reported as “remained amorphous”. The “hygroscopic nature by DVS” value in series [4] is “slightly hygroscopic”. For the same molecule, in series [4], the “Post-DVS XRPD analysis (form)” value is reported as “no change in form, but reduction in crystallinity”. The “moisture uptake by DVS” value in series [4] stood at 0.94%.
With `O=C(c1ccc(Oc2ccccc2)cc1Cl)c1c[nH]c2ncnc(N[C@@H]3CC[C@@H](CO)OC3)c12.O=S(=O)(O)c1ccccc1` [besylate Form 1], the “solid obtained in hydration study (XRPD)” value in series [5] (2% and 5% water in acetone, 25° C.) is on record as “recovered”. Also, the “Hydration study result (solid by XRPD)” value in series [5] (2% water in water/acetone, 25° C., Form = form of the same salt) was “Form 1”; in series [5] (2% water in water/acetone, 50° C., Form = form of the same salt) it was “Form 1”; in series [5] (5% water in water/acetone, 25° C., Form = form of the same salt), “Gum”; in series [5] (5% water in water/acetone, 50° C., Form = form of the same salt), “Gum”; in series [5] (20% water in water/acetone, 25° C.), “Gum”; in series [5] (20% water in water/acetone, 50° C.) it was “Gum”. Further, in series [5] (the other experiments (remaining water contents/temperatures)), the “solid obtained in hydration study” value was “gum”. In addition, the “KF moisture (water) content” value in series [2] is 0.24% and 2.0%. Besides, the “XRPD after salt disproportionation study, 24 hours” value in series [6] is reported as “gel-like, amorphous solid”. Besides, the “XRPD after salt disproportionation study, 48 hours” value (from here on “XRPD … 48 hours”) in series [6] was “staying partially crystalline; also recorded: no change from the input material”. The “stability” value in series [1] is listed as “stable”. In series [7] (40° C./75% RH), the “XRPD analysis after storage for 1 week” value is “no change in form from the input material”. The “Purity after 1 week (%)” value in series [7] (40° C./75% RH) was found to be 97.8%; in series [7] (80° C.), 97.4%; in series [7] (Ambient), 97.4%. Moreover, in series [7], the “T = 0 purity (%)” value turned out to be 97.4%. Besides, in series [7], the “area % purity and form changes after 1 week” value was “no decrease in area % purity or form changes”. In addition, in series [4], the “Post-DVS XRPD analysis (form)” value is given as “no change in form from the input material”. Also, the “pH - 2 Hours at 25° C.” value in series [8] (Input Solvent Water) is listed as 1.96; in series [8] (Input Solvent pH 1) it was 0.19; in series [8] (Input Solvent pH 4.5) it was 4.20; in series [8] (Input Solvent pH 6.5) it was 3.31. Further, the “pH - 24 Hours at 25° C.” value in series [8] (Input Solvent Water) is 1.68; in series [8] (Input Solvent pH 1), 0.37; in series [8] (Input Solvent pH 4.5), 3.80; in series [8] (Input Solvent pH 6.5), 2.51. For the same molecule, the “pH - 48 Hours at 25° C.” value stood at 1.84 in series [8] (Input Solvent Water), 1.07 in series [8] (Input Solvent pH 1), 3.82 in series [8] (Input Solvent pH 4.5) and 3.26 in series [8] (Input Solvent pH 6.5). The “Solubility” value in series [8] (setting [9]) was 200 µg/mL; in series [8] (setting [10]) it was 200 µg/mL; in series [8] (setting [11]), under 100 µg/mL. In addition, the “Solubility (mg/mL)” value in series [8] (48 hours) is “<LOD”. Moreover, in series [8] (25° C., 48 hours), the “XRPD after thermodynamic solubility studies” value is listed as “poorly crystalline; also recorded: no change from the input material”.
For `O=C(c1ccc(Oc2ccccc2)cc1Cl)c1c[nH]c2ncnc(N[C@@H]3CC[C@@H](CO)OC3)c12.O=S(=O)(O)CCS(=O)(=O)O` [edisylate Form 1], in series [2], the “KF moisture (water) content” value is on record as 0.94%. Moreover, in series [6], the “XRPD … 48 hours” value is recorded as “no change from the input material” and the “measured pH after slurrying in water” value turned out to be 2.32. Besides, in series [7] (40° C./75% RH), the “XRPD analysis after storage for 1 week” value was “no change in form from the input material” and the “Purity after 1 week (%)” value worked out at 98.1%. The “Purity after 1 week (%)” value in series [7] (80° C.) stood at 97.5%. The “Purity after 1 week (%)” value in series [7] (Ambient) is 97.9%. Besides, in series [7], the “T = 0 purity (%)” value was found to be 97.9%; the “area % purity and form changes after 1 week” value is on record as “no decrease in area % purity or form changes”. Further, in series [4], the “Post-DVS XRPD analysis (form)” value was “no change in form from the input material” and the “moisture uptake by DVS” value is given as “ca. 4.6%”. Moreover, the “XRPD after thermodynamic solubility studies” value in series [8] (25° C., 48 hours) is given as “no change from the input material”.
For `Br.O=C(c1ccc(Oc2ccccc2)cc1Cl)c1c[nH]c2ncnc(N[C@@H]3CC[C@@H](CO)OC3)c12` [hydrobromide Form 2], in series [2], the “KF moisture (water) content” value worked out at 1.97%. Besides, in series [6], the “XRPD after salt disproportionation study, 24 hours” value was “partially crystalline”; the “XRPD … 48 hours” value is “staying hydrobromide Form 2”; the “measured pH after slurrying in water” value is listed as 1.86. Moreover, in series [7] (40° C./75% RH), the “XRPD analysis after storage for 1 week” value is “no change in form from the input material”. Moreover, in series [4], the “Post-DVS XRPD analysis (form)” value is “no change in form from the input material” and the “moisture uptake by DVS” value is reported as “ca. 2.4%”. In series [8] (Input Solvent Water), the “pH - 2 Hours at 25° C.” value is listed as 1.86, the “pH - 24 Hours at 25° C.” value turned out to be 1.34 and the “pH - 48 Hours at 25° C.” value is on record as 1.86. In addition, the “Solubility” value in series [8] (setting [9]) was determined as 500 µg/mL. Besides, in series [8] (Input Solvent pH 1), the “pH - 2 Hours at 25° C.” value is given as 0.27, the “pH - 24 Hours at 25° C.” value stood at 0.40 and the “pH - 48 Hours at 25° C.” value was 0.78. Moreover, in series [8] (setting [10]), the “Solubility” value was under 100 µg/mL. For the same molecule, in series [8] (Input Solvent pH 4.5), the “pH - 2 Hours at 25° C.” value stood at 3.97, the “pH - 24 Hours at 25° C.” value worked out at 3.62 and the “pH - 48 Hours at 25° C.” value amounted to 3.84. The “Solubility” value in series [8] (setting [11]) was under 100 µg/mL. Moreover, in series [8] (Input Solvent pH 6.5), the “pH - 2 Hours at 25° C.” value was found to be 3.53, the “pH - 24 Hours at 25° C.” value is given as 2.61 and the “pH - 48 Hours at 25° C.” value is recorded as 3.44. Also, the “Solubility (mg/mL)” value in series [8] (48 hours) is listed as “<LOD”. Also, the “XRPD after thermodynamic solubility studies, pH 1” value in series [8] (pH 1, 25° C., 48 hours) was “hydrobromide Form 1 and 2 are observed”. For the same molecule, the “XRPD after thermodynamic solubility studies, water and pH 4.5 and 6.5” value in series [8] (water and pH 4.5 and 6.5, 25° C., 48 hours) is “poorly crystalline”.
For `Cl.O=C(c1ccc(Oc2ccccc2)cc1Cl)c1c[nH]c2ncnc(N[C@@H]3CC[C@@H](CO)OC3)c12` [hydrochloride Form 2], the “stability” value in series [1] was “decreased crystallinity”.
On the same count and under the same terms, in the case of `O=C(O)/C=C\C(=O)O.O=C(c1ccc(Oc2ccccc2)cc1Cl)c1c[nH]c2ncnc(N[C@@H]3CC[C@@H](CO)OC3)c12` [maleate Form 1] it was “stable”; in that of `O=C(O)C(=O)O.O=C(c1ccc(Oc2ccccc2)cc1Cl)c1c[nH]c2ncnc(N[C@@H]3CC[C@@H](CO)OC3)c12` [oxalate Form 3], “stable”.
